In US20210230554A1, “GENERATION OF FUNCTIONAL BETA CELLS FROM HUMAN PLURIPOTENT STEM CELL-DERIVED ENDOCRINE PROGENITORS” (Novo Nordisk A/S, priority 2018, published 2021):

Assays:
[1] = test system: endocrine progenitor cells; experiment: BC step 1 screen: flow cytometry of INS, NKX6.1 and GCG expression; format: cell-based, human; conditions: added on top of BC step 1 medium comprising DZNEP, Alk5i, Heparin, Nicotinamide; FIG. 3
Procedure: As a first step towards generating fully functional mature beta cells, we screened for factors to generate maximal numbers of immature INS+/NKX6.1+ cells (BC step 1 screen). […]
Compounds were screened for their ability to induce INS+, NKX6.1+ double positive immature BCs and few GCG positive cells within a 7 days period. Media change was performed daily. Cells were fixed at day 4 and day 7 of BC step 1 and analysed for INS NKX6.1 and GCG expression using flow cytometry (see Table 1 and FIG. 2). Briefly, differentiated endocrine cells were dispersed into single-cell suspension by incubation with TrypLE Express at 37° C. for 10 min. Differentiated endocrine cells were resuspended in 4% paraformaldehyde, washed in PBS followed by incubation with primary antibodies overnight and then secondary antibodies for 1 hour. The differentiated hPSCs co-expressed C-peptide+/NKX6.1+ with few cells expressing the α-cell hormone glucagon (FIG. 2). When quantified by flow cytometry, 48% of the cells co-expressed C-peptide+/NKX6-1 (FIG. 2), more than previously reported with stem cell-derived beta cells (Pagliuca et al., Cell. 2014 Oct. 9; 159(2):428-39. doi: 10.1016/j.cell.2014.09.040; Rezania et al., Nat Biotechnol. 2014 November; 32(11):1121-33. doi: 10.1038/nbt.3033. Epub 2014 Sep. 11).
Hits compounds of Table 2 have been identified in a primary screen.

[2] = test system: stem cell-derived endocrine progenitor cells; experiment: BC step 1 medium with or without Nicotinamide: BC FACS phenotype; format: cell-based, human; conditions: BC step 1 medium with or without 10 mM Nicotinamide, 4 days, then 2 days BC step 2; FIG. 16
Procedure: To evaluate the effect of Nicotinamide, stem cell-derived endocrine progenitor cells were differentiated in BC step 1 medium with or without Nicotinamide, followed by a culturing step in BC step 2 medium.
Cell were differentiated to endocrine progenitors and then subjected to BC step 1 medium for 4 days (BC step 1 medium comprises RPMI1640 with Glutamax, 0.1% Pen/Strep, 12% KOSR, 10 μM Alk5i, 1 μM T3, 1 μM DZNEP, 10 μg/ml heparin, 25 μM DAPT, and with or without 10 mM Nicotinamide).
Cells were then subjected to BC step 2 cell culture medium for 2 days before analysing by FACS. BC step 2 medium consisted of: RPMI1640 with Glutamax, 0.1% Pen/Strep, 12% KOSR, 50 μM GABA, 10 μM Alk5i, 1 μM T3 and 10 μM DZNEP.

[3] = test system: hPSC-derived beta cells; experiment: Perfusion assay of dynamic human insulin secretion in vitro; format: cell-based
Procedure: Mature beta cells are functionally defined by their rapid response to elevate glucose. Secretion of human insulin by beta cells at the end of BC step 2 method with BC step 2 medium comprising 50 μM GABA, 10 μM Alk5i, 1 μM T3 was measured as repeated responses to 20 mM glucose±1 μM exendin-4 a GLP1-receptor agonist or ±the anti-diabetic sulfonylurea compound Tolbutamide within a perfusion system.
Briefly, groups of 300 hand-picked, clusters of hESC- or hiPSC-derived cell clusters were suspended with beads (Bio-Rad #150-4124) in plastic chambers of Biorep PERFUSION SYSTEM (Biorep #PERI-4.2). Under temperature and CO2-controlled conditions, the cells were perfused at 0.5 ml min−1 with a Krebs buffer. Prior to sample collection, cells were equilibrated under basal (2 mM glucose) conditions for 1 h. During perfusion cells were exposed to repeated challenges with 20 mM glucose±1 μM exendin-4 or ±100 μM Tolbutamide. At the end of perfusion, cells were exposed to cAMP-elevating agents (dbcAMP) on top of 20 mM glucose. Insulin secretion was measured by human insulin ELISA (Mercodia).

Compound: C[C@H](NC(=O)Cc1cc(F)cc(F)c1)C(=O)NC(C(=O)OC(C)(C)C)c1ccccc1 (some centres unmarked) [DAPT]
- number of INS+/NKX6.1+ cells [1]: highest number of INS+/NKX6.1+ cells

Compound: NC(=O)c1cccnc1 [Nicotinamide]
- BC FACS phenotype [2]: not affected

Compound: CCCCNC(=O)NS(=O)(=O)c1ccc(C)cc1 [tolbutamide]
- effect on insulin secretion ([3]; day 7 of BC step 2, 20 mM glucose ± 100 μM Tolbutamide): significant additive effect

Compound: Dibutyryl-cAMP [dbcAMP]
- number of INS+/NKX6.1+ cells [1]: highest number of INS+/NKX6.1+ cells

Compound: exendin-4
- level of insulin secretion in the hPSC-derived beta cells ([3]; 20 mM glucose ± 1 μM exendin-4): increased the level of insulin secretion
